Assay [1] concerns the target T1, retinoid X receptor wild type (RXRwt) (Homo sapiens, UniProt P19793).
T1 construct: gene RXRA; full length RXRwt
Description: luciferase reporter (CRBPII response element) activation in transfected HEK293T cells. The assay is classed as cell-based.

In assay [2] the target is T2, RXR variant Q275C;I310M;F313I (QCIMFI) (Homo sapiens, UniProt P19793, Q275C/I310M/F313I).
T2 construct: gene RXRA; RXR variant LBD with RXR DBD (QCIMFI)
T2 sequence (P19793 1-462 Q275C/I310M/F313I): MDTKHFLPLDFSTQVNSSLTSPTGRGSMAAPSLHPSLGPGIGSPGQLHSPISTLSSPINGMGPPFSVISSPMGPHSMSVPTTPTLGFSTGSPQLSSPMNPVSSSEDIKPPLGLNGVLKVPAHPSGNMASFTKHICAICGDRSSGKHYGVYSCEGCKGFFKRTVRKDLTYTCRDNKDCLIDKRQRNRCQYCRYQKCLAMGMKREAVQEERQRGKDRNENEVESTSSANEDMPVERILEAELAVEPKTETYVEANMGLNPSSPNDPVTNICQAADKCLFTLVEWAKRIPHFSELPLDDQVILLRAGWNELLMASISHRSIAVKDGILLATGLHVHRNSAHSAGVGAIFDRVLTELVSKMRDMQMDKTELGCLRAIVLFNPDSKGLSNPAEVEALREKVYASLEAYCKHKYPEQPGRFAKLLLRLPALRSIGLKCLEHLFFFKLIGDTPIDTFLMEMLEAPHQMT
The experiment in a line: luciferase reporter activation in transfected HEK293T cells. The assay is classed as cell-based. A general note: A reporter such as luciferase makes a cellular process visible.

Drawing on paper PMC2831033, “Characterization of a molecular switch system that regulates gene expression in mammalian cells through a small molecule” (2010), this text covers EC50 for one substance.

In general, EC50 refers to the concentration that produces a half-maximal response.

T1 sequence (P19793 whole entry): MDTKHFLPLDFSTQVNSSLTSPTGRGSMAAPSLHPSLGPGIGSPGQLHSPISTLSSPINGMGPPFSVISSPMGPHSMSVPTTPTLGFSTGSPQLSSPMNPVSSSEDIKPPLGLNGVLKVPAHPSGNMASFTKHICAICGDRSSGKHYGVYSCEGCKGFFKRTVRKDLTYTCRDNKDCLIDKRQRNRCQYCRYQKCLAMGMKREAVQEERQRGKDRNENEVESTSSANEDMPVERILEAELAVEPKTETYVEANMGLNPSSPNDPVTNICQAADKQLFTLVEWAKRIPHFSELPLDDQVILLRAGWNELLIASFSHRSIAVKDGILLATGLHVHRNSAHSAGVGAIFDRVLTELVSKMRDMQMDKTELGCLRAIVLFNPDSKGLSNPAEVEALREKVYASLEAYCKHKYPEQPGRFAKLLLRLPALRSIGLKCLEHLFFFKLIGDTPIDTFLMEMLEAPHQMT

With LG335, the EC50 in assay [1] amounted to 338 nM; in assay [2], 38 nM.
